Assay results as given in article PMC7226963, “CCN-Based Therapeutic Peptides Modify Pancreatic Ductal Adenocarcinoma Microenvironment and Decrease Tumor Growth in Combination with Chemotherapy” (Cells, 2020).
Like-named read-outs stand apart in the source and are kept apart here.

How the values were obtained:
[1] = Gemcitabine and metabolites in tumor and plasma, with or without BLR200 (HPLC-MS); conditions: for Change of concentration (tumor/plasma ratio) in BLR200-treated mice: BLR200 10 µg/kg i.p. every other day from day 11, 4 treatments, gemcitabine 100 mg/kg i.v. single bolus day 17, 30 min and 1 h, n = 4, not statistically significant
Protocol: FC1199-bearing mice were treated i.p with BLR200 (10 µg/kg) from day 11 for a total of 4 treatments, every other day. On day 17, mice were treated with gemcitabine (100 mg/kg, i.v., single bolus). After 30 min and 1 h, plasma and tumors were collected for HPLC measurement of gemcitabine and metabolites. The plasma fraction added with 10 µL tetrahydrouridine (THU) 2.5 mg/mL was immediately separated by centrifugation at 3200× g for 15 min at 4 °C and stored at −20 °C until analysis. Tumors were immediately frozen in liquid nitrogen and stored at −20 °C until analysis. Extraction and analysis of gemcitabine (dFdc, dFdCTP, and dFdU) in tumors and plasma were carried out according to Bapiro et al. [27].
Briefly, tumors were weighted, spiked with 2′-deossicitidine as the internal standard (IS) at a final concentration of 1 ng/mg, and homogenized with ice-cold acetonitrile (ACN) 50% (v/v) containing THU 25 µg/mL in a Precellys Evolution homogenizer (Bertin Technologies S.A.S., Montigny-le-Bretonneux, France). Fifty microliters of homogenate were added with 200 µL ACN 50% (v/v), vortexed, and centrifuged at 13,200 rpm for 10 min at 4 °C. The supernatant was dried under N2 flux and the residue reconstituted with 100 µL of milliQ water. Concerning plasma, 25 µL were spiked with 1 µL of 10 µg/mL of IS and processed in the same way as tumors. The reconstituted tumors and plasma extracts were analyzed by injecting 2 µL in a UHPLC System connected to a LCMS-8060 (Shimadzu Scientific Instruments, Columbia, MD, USA) with a dual ion source. […] The mass spectrometer worked with an electrospray ionization source operating both in the negative and positive Multiple Reaction Monitoring mode, quantifying target ions m/z 264→59.25 for gemcitabine (positive), m/z 502→158.9 for dFdCTP (negative), m/z 263.1→220 for dFdU (negative), and m/z 228.1→112.05 for IS (positive). The lower limit of quantitation (LOQ) was 0.2 ng/mg for gemcitabine, 0.4 ng/mg for dFdU, and 0.5 ng/mg for dFdCTP in tumor samples, while it was 0.01 µg/mL for gemcitabine and 0.02 µg/mL for dFdU in plasma samples.

FC1199 cells = assay: FC1199 proliferation assay (crystal violet); type: cell-based, murine; conditions: Mus musculus, 72 h, 72 h incubation, mean and SD of two experiments, read-out: IC50 of gemcitabine on FC1199 cell proliferation
Protocol: FC1199 were seeded into 96-well plates in DMEM supplemented with 5% FCS. At 24 h after seeding, cells were exposed to increasing concentrations of BLR100 and BLR200 alone or in combination with increasing concentrations of gemcitabine. After a 72 h incubation, cells were fixed and stained with crystal violet solution (Sigma–Aldrich, Merck Life Science, Milano, Italy). The staining was eluted with a 1:1 ethanol/0.1 M sodium citrate solution, and the absorbance at 595 nm was measured. Each condition was tested in triplicate.

FC1199 orthotopic tumors = assay: Orthotopic FC1199 PDAC model: tumor burden (pancreas weight) and ascites; type: in vivo, C57BL/6 mice; conditions: peptides 4.5 µg/kg i.p. from day 11 or gemcitabine 40 mg/kg i.v.; n = 7
Protocol: Six- to eight-week old female C57BL/6 mice (Charles River Laboratories, Lecco, Italy) were maintained under specific-pathogen-free conditions, with constant temperature and humidity, and handled using aseptic procedures. FC1199 cells (5 × 10^4) were implanted orthotopically in the pancreas as described. Gemcitabine was administered i.v. at 40 mg/kg (see scheme in Figure 4A). Control groups received the same volume of vehicle. Mice were weighed every other day as a measure of drug toxicity. […] Tumor burden was evaluated at the end of the experiment, as pancreas weight. Peritoneal ascitic fluid was collected with a syringe and the volume recorded. Animals with a collectable peritoneal fluid (≥100 µL) were considered positive for ascites. Liver of mice were analyzed for macroscopic metastases, and no metastatic foci was detected in any group.

PANC-1 orthotopic = PANC-1 orthotopic preclinical model; cited from earlier work
Excerpt: (§1) CCN2 has recently been proposed as a target for PDAC therapy. […] FG-3019 (pamrevlumab) is currently in a Phase 3 clinical trial to evaluate its efficacy and safety as neoadjuvant treatment in combination with gemcitabine plus nab-paclitaxel in the treatment of locally advanced, unresectable pancreatic cancer.

KPC tumor = conditions: LSL-KrasG12D/+;LSL-Trp53R172H/+;Pdx-1-Cre (KPC) mice; cited from earlier work
Excerpt: as §1

Molecule: Nc1ccn([C@@H]2O[C@H](COP(=O)(O)OP(=O)(O)OP(=O)(O)O)[C@@H](O)C2(F)F)c(=O)n1 [dFdCTP, gemcitabine triphosphate]
- Concentration of the metabolite in tumors and plasma ([1]; gemcitabine 100 mg/kg i.v. single bolus, with or without BLR200 10 µg/kg, 30 min and 1 h, LOQ 0.5 ng/mg in tumor): undetectable in both groups

Molecule: O=c1ccn([C@@H]2O[C@H](CO)[C@@H](O)C2(F)F)c(=O)[nH]1 [dFdU, 2′,2′-difluorodeoxyuridine]
- Change of concentration (tumor/plasma ratio) in BLR200-treated mice [1]: small increase

Molecule: Nc1ccn([C@@H]2O[C@H](CO)[C@@H](O)C2(F)F)c(=O)n1 [gemcitabine, Gemcitabine]
- IC50 (FC1199 cells; gemcitabine alone, DMEM 5% FCS, absorbance 595 nm): 13.5 ± 4.6 nM
- IC50 (FC1199 cells; gemcitabine with BLR100 20 nM): 13.2 ± 3.9 nM
- IC50 (FC1199 cells; gemcitabine with BLR100 100 nM): 11.9 ± 3.7 nM
- Effect on tumor growth as monotherapy, late start (FC1199 orthotopic tumors): only a marginal effect on tumor growth
- Change of concentration (tumor/plasma ratio) in BLR200-treated mice [1]: small increase

B1: FG-3019: CCN2-targeting mAb (antibody, chains of the INN, looked up, V domains shown)
VH: EGQLVQSGGGLVHPGGSLRLSCAGSGFTFSSYGMHWVRQAPGKGLEWVSGIGTGGGTYSTDSVKGRFTISRDNAKNSLYLQMNSLRAEDMAVYYCARGDYYGSGSFFDCWGQGTLVTVSS
VL: DIQMTQSPSSLSASVGDRVTITCRASQGISSWLAWYQQKPEKAPKSLIYAASSLQSGVPSRFSGSGSGTDFTLTISSLQPEDFATYYCQQYNSYPPTFGQGTKLEIK
- Tumor growth and metastasis (PANC-1 orthotopic): inhibited tumor growth and metastasis
- Tumor response to gemcitabine (KPC tumor): enhanced tumor response
